From patent US20250353891A1 (MEDIMMUNE LIMITED, priority 2022, published 2025)
Where two headings read alike, the source gives them in different places. Starred links: 1 amine or outer side, 2 acyl side, 3 side chain; linkers in the order of their positions; H or OH if unused. Non-standard residues stand in square brackets, D forms with d. Residues, ends and D or L forms follow the SMILES beside them. Groups on a side chain read outwards from the residue. *: point of attachment. C20 diacid = O=C(O)CCCCCCCCCCCCCCCCCCC(=O)*; C18 diacid = O=C(O)CCCCCCCCCCCCCCCCC(=O)*; γGlu = O=C(O)[C@H](CCC(=O)[*:2])N[*:1]; Stearoyl = CCCCCCCCCCCCCCCCCC(=O)*; αMeF = C[C@](N)(Cc1ccccc1)C(=O)O; AEEA = NCCOCCOCC(=O)O; Aib = CC(C)(N)C(=O)O

Key:
[1] = target: human glucagon receptor (hGCGR) (Homo sapiens, UniProt P47871); test: cAMP production (HTRF) in CHO cells expressing hGCGR; format: cell-based; set-up: expressed in transfected cells; details: geometric mean, read-out: hGluc-R EC50
Method in brief: (§1)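 Read-out: HTRF cAMP (anti-cAMP cryptate donor, cAMP-d2 acceptor in conjugate/lysis buffer), converted to % Delta F and fitted by 4-parameter logistic for EC50. Cell densities were 1×10^5 cells/mL (hGLP-1R) or 2×10^5 cells/mL (hGCGR). Stimulation lasted 30 min at room temperature.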

[2] = Mouse acute food intake study; format: in vivo; details: male C57Bl/6 mice, s.c., cumulative food intake at 24 hr vs vehicle
Description: Male C57Bl/6 mice obtained from Jackson Laboratories or Charles River at 8-9 weeks of age and were housed one per cage in BioDaq (Research Diets) cages. Mice were placed on Alpha Dri bedding, standard chow diet (Envigo, 2018) and given water pouches. Mice were allowed to acclimate for 1-2 weeks. Body weight was measured to ensure appropriate acclimation. After acclimation, mice were sham dosed a minimum of 2 times prior to initiation of food intake study. On study day, mice were placed in clean cage bottoms, weighed, and fasted for 6-8 hours. Mice were sorted into groups based on average 24-hour food intake data and body weight. 1-2 hours prior to lights out, mice were dosed subcutaneously with one vehicle or test peptide dissolved in an appropriate vehicle at 5 mL/kg. Mice were left undisturbed and allowed access to food and water for 48 hours. Automated food intake was monitored in the BioDaq system was monitored during this time. Discrete food intake data was exported into MS Excel from which cumulative food intake data was generated and analyzed.

[3] = target: human GLP-1 receptor (hGLP-1R) (Homo sapiens, UniProt P43220); test: cAMP production (HTRF) in CHO cells expressing hGLP-1R; format: cell-based; set-up: expressed in transfected cells; details: for EC50: geometric mean, read-out: hGLP-1R EC50; for % Relative Potency Ratio: % GLP-1R activity relative to GLP-1 / % GlucR activity relative to glucagon
Method in brief: as §1

[4] = Table 7, peptides modified at position 20, cAMP in CHO hGCGR cells
[5] = Table 7, peptides modified at position 20, cAMP in CHO hGLP-1R cells

Sequence of human glucagon receptor (hGCGR) (P47871 26-477): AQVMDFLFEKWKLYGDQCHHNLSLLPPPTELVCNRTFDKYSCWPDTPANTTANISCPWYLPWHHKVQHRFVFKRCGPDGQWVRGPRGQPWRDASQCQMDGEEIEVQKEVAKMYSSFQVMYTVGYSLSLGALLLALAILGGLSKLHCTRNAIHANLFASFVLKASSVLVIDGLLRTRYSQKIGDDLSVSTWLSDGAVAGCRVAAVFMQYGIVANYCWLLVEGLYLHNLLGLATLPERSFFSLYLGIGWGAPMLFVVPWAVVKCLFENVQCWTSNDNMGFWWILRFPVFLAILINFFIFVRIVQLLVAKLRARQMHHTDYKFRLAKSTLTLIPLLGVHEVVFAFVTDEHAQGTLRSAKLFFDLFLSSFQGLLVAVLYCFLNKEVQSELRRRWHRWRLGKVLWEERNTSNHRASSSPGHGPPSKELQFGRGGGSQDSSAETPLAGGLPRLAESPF
Sequence of human GLP-1 receptor (hGLP-1R) (P43220 24-463): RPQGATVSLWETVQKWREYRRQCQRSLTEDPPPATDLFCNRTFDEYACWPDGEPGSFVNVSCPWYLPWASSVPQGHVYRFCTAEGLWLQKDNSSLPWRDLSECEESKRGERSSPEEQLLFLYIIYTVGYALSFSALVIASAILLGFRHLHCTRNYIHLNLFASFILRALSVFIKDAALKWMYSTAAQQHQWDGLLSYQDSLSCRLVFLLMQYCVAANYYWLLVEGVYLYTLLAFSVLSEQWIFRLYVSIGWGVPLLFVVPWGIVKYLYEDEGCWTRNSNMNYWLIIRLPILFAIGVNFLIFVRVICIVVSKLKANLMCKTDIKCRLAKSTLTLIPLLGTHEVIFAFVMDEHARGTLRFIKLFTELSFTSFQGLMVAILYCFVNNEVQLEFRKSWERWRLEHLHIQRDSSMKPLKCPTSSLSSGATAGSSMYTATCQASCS

Row | SMILES | EC50 [1, 4] | 24 hr % Vehicle Food Intake ([2]; dose 10 nmol/kg) | EC50 [3, 5] | % Relative Potency Ratio ([3]; Table 7) | 24 hr % Vehicle Food Intake ([2]; dose 3 nmol/kg) | 24 hr % Vehicle Food Intake ([2]; dose 30 nmol/kg) | EC50 ([1]; cAMP, CHO cells, 0.1% BSA) | % Relative Potency Ratio [3] | EC50 ([3]; cAMP, CHO cells, 0.1% BSA)
1 | CC[C@H](C)[C@H](NC(=O)[C@H](CO)NC(=O)[C@H](CCC(N)=O)NC(=O)[C@@H](NC(=O)[C@H](Cc1ccccc1)NC(=O)[C@H](CC(=O)O)NC(=O)[C@H](CCCCNC(=O)COCCOCCNC(=O)COCCOCCNC(=O)CC[C@H](NC(=O)CCCCCCCCCCCCCCCCC(=O)O)C(=O)O)NC(=O)[C@H](C)NC(=O)C(C)(C)NC(=O)[C@H](CCCNC(=N)N)NC(=O)[C@H](CO)NC(=O)[C@H](CC(=O)O)NC(=O)[C@H](CC(C)C)NC(=O)[C@](C)(Cc1ccccc1)NC(=O)[C@H](CCCCN)NC(=O)[C@H](CO)NC(=O)[C@@H](NC(=O)[C@H](CC(=O)O)NC(=O)[C@H](CO)NC(=O)[C@@H](NC(=O)[C@](C)(Cc1ccccc1)NC(=O)[C@H](CO)NC(=O)CNC(=O)[C@H](Cc1c[nH]cn1)NC(=O)C(C)(C)NC(=O)[C@@H](N)Cc1c[nH]cn1)[C@@H](C)O)C(C)C)C(C)C)C(=O)N[C@@H](C)C(=O)N[C@@H](CC(N)=O)C(=O)N[C@H](C(N)=O)[C@@H](C)O [Peptide 223] (H-H[Aib]HGS[αMeF]TSDVSK[αMeF]LDSR[Aib]AK([AEEA-AEEA-γGlu-C18 diacid])DFVQSIANT-NH2) | 0.104 nM | 63.6% | 0.0488 nM | 4.2 | – | – | – | – | –
2 | CC[C@H](C)[C@H](NC(=O)[C@H](Cc1c[nH]c2ccccc12)NC(=O)[C@H](CCC(N)=O)NC(=O)[C@@H](NC(=O)[C@](C)(Cc1ccccc1)NC(=O)[C@H](CC(=O)O)NC(=O)[C@H](CCCCNC(=O)COCCOCCNC(=O)COCCOCCNC(=O)CC[C@H](NC(=O)CC[C@H](NC(=O)CCCCCCCCCCCCCCCCC(=O)O)C(=O)O)C(=O)O)NC(=O)[C@H](C)NC(=O)[C@H](C)NC(=O)[C@H](CCCNC(=N)N)NC(=O)[C@H](CO)NC(=O)[C@H](CC(=O)O)NC(=O)[C@H](CC(C)C)NC(=O)[C@](C)(Cc1ccccc1)NC(=O)[C@H](CCCCN)NC(=O)[C@H](CO)NC(=O)[C@@H](NC(=O)[C@H](CC(=O)O)NC(=O)[C@H](CO)NC(=O)[C@@H](NC(=O)[C@](C)(Cc1ccccc1)NC(=O)[C@H](CO)NC(=O)CNC(=O)[C@H](Cc1c[nH]cn1)NC(=O)C(C)(C)NC(=O)[C@@H](N)Cc1c[nH]cn1)[C@@H](C)O)C(C)C)C(C)C)C(=O)N[C@@H](C)C(=O)N[C@@H](CC(N)=O)C(=O)N[C@H](C(N)=O)[C@@H](C)O [Peptide 247] (H-H[Aib]HGS[αMeF]TSDVSK[αMeF]LDSRAAK([AEEA-AEEA-γGlu-γGlu-C18 diacid])D[αMeF]VQWIANT-NH2; N-terminus assumed) | 0.0511 nM | 66.9% | 0.0849 nM | 1.2 | – | – | – | – | –
3 | CCCCCCCCCCCCCCCCCC(=O)N[C@@H](CCC(=O)N[C@@H](CCC(=O)NCCOCCOCC(=O)NCCOCCOCC(=O)NCCCC[C@H](NC(=O)[C@H](C)NC(=O)[C@H](C)NC(=O)[C@H](CCCNC(=N)N)NC(=O)[C@H](CO)NC(=O)[C@H](CC(=O)O)NC(=O)[C@H](CC(C)C)NC(=O)[C@](C)(Cc1ccccc1)NC(=O)[C@H](CCCCN)NC(=O)[C@H](CO)NC(=O)[C@@H](NC(=O)[C@H](CC(=O)O)NC(=O)[C@H](CO)NC(=O)[C@@H](NC(=O)[C@](C)(Cc1ccccc1)NC(=O)[C@H](CO)NC(=O)CNC(=O)[C@H](Cc1c[nH]cn1)NC(=O)C(C)(C)NC(=O)[C@@H](N)Cc1c[nH]cn1)[C@@H](C)O)C(C)C)C(=O)N[C@@H](CC(=O)O)C(=O)N[C@@](C)(Cc1ccccc1)C(=O)N[C@H](C(=O)N[C@@H](CCC(N)=O)C(=O)NC(C)(C)C(=O)N[C@H](C(=O)N[C@@H](C)C(=O)N[C@@H](CC(N)=O)C(=O)N[C@H](C(N)=O)[C@@H](C)O)[C@@H](C)CC)C(C)C)C(=O)O)C(=O)O [Peptide 257] (H-H[Aib]HGS[αMeF]TSDVSK[αMeF]LDSRAAK([AEEA-AEEA-γGlu-γGlu-Stearoyl])D[αMeF]VQ[Aib]IANT-NH2) | 0.00166 nM | 96.5% | 0.00735 nM | 0.4 | 94.7% | – | – | – | –
4 | CC[C@H](C)[C@H](NC(=O)C(C)(C)NC(=O)[C@H](CCC(N)=O)NC(=O)[C@@H](NC(=O)[C@](C)(Cc1ccccc1)NC(=O)[C@H](CC(=O)O)NC(=O)[C@H](CCCCNC(=O)COCCOCCNC(=O)COCCOCCNC(=O)CC[C@H](NC(=O)CCCCCCCCCCCCCCCCC(=O)O)C(=O)O)NC(=O)[C@H](C)NC(=O)[C@H](C)NC(=O)[C@H](CCCNC(=N)N)NC(=O)[C@H](CO)NC(=O)[C@H](CC(=O)O)NC(=O)[C@H](CC(C)C)NC(=O)[C@](C)(Cc1ccccc1)NC(=O)[C@H](CCCCN)NC(=O)[C@H](CO)NC(=O)[C@@H](NC(=O)[C@H](CC(=O)O)NC(=O)[C@H](CO)NC(=O)[C@@H](NC(=O)[C@](C)(Cc1ccccc1)NC(=O)[C@H](CO)NC(=O)CNC(=O)[C@H](Cc1c[nH]cn1)NC(=O)C(C)(C)NC(=O)[C@@H](N)Cc1c[nH]cn1)[C@@H](C)O)C(C)C)C(C)C)C(=O)N[C@@H](C)C(=O)N[C@@H](CCC(=O)O)C(=O)N[C@H](C(N)=O)[C@@H](C)O [Peptide 300] (H-H[Aib]HGS[αMeF]TSDVSK[αMeF]LDSRAAK([AEEA-AEEA-γGlu-C18 diacid])D[αMeF]VQ[Aib]IAET-NH2) | 0.0184 nM | 45.2% | 0.0197 nM | 1.8 | – | – | – | – | –
5 | CC[C@H](C)[C@H](NC(=O)C(C)(C)NC(=O)[C@H](C)NC(=O)[C@@H](NC(=O)[C@](C)(Cc1ccccc1)NC(=O)[C@H](CC(=O)O)NC(=O)[C@H](CCCCNC(=O)COCCOCCNC(=O)COCCOCCNC(=O)CC[C@H](NC(=O)CC[C@H](NC(=O)CCCCCCCCCCCCCCCCCCC(=O)O)C(=O)O)C(=O)O)NC(=O)[C@H](C)NC(=O)[C@H](C)NC(=O)[C@H](CCCNC(=N)N)NC(=O)[C@H](CO)NC(=O)[C@H](CC(=O)O)NC(=O)[C@H](CC(C)C)NC(=O)[C@](C)(Cc1ccccc1)NC(=O)[C@H](CCCCN)NC(=O)[C@H](CO)NC(=O)[C@@H](NC(=O)[C@H](CC(=O)O)NC(=O)[C@H](CO)NC(=O)[C@@H](NC(=O)[C@](C)(Cc1ccccc1)NC(=O)[C@H](CO)NC(=O)CNC(=O)[C@H](Cc1c[nH]cn1)NC(=O)C(C)(C)NC(=O)[C@@H](N)Cc1c[nH]cn1)[C@@H](C)O)C(C)C)[C@@H](C)CC)C(=O)N[C@@H](C)C(=O)N[C@@H](CCC(=O)O)C(=O)N[C@H](C(N)=O)[C@@H](C)O [Peptide 302] (H-H[Aib]HGS[αMeF]TSDVSK[αMeF]LDSRAAK([AEEA-AEEA-γGlu-γGlu-C20 diacid])D[αMeF]IA[Aib]IAET-NH2) | 0.271 nM | – | 0.151 nM | 3.5 | – | 46.4% | – | – | –
6 | CC[C@H](C)[C@H](NC(=O)[C@H](Cc1c[nH]c2ccccc12)NC(=O)[C@H](CCCCNC(=O)COCCOCCNC(=O)COCCOCCNC(=O)CC[C@H](NC(=O)CC[C@H](NC(=O)CCCCCCCCCCCCCCCCC(=O)O)C(=O)O)C(=O)O)NC(=O)[C@@H](NC(=O)[C@H](Cc1ccccc1)NC(=O)[C@H](CC(=O)O)NC(=O)[C@H](CCC(N)=O)NC(=O)[C@H](C)NC(=O)[C@H](C)NC(=O)[C@H](CCCNC(=N)N)NC(=O)[C@H](CO)NC(=O)[C@H](CC(=O)O)NC(=O)[C@H](CC(C)C)NC(=O)[C@](C)(Cc1ccccc1)NC(=O)[C@H](CCCCN)NC(=O)[C@H](CO)NC(=O)[C@@H](NC(=O)[C@H](CC(=O)O)NC(=O)[C@H](CO)NC(=O)[C@@H](NC(=O)[C@](C)(Cc1ccccc1)NC(=O)[C@H](CO)NC(=O)CNC(=O)[C@H](Cc1c[nH]cn1)NC(=O)C(C)(C)NC(=O)[C@@H](N)Cc1c[nH]cn1)[C@@H](C)O)C(C)C)C(C)C)C(=O)N[C@@H](C)C(=O)N[C@@H](CC(N)=O)C(=O)N[C@H](C(=O)NCC(=O)NCC(N)=O)[C@@H](C)O [Peptide 364] (H-H[Aib]HGS[αMeF]TSDVSK[αMeF]LDSRAAQDFVK([AEEA-AEEA-γGlu-γGlu-C18 diacid])WIANTGG-NH2) | – | 63.7% | – | – | – | – | 0.0304 nM | 2.6 | 0.0234 nM
